What was measured:
Assay in all cases: Test D postemergence
Assay type in all cases: in vivo
Conditions in all cases: scale 0 to 100
[1] = tested on: spring wheat (Triticum aestivum)
Procedure, shortened: (§1)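 Ratings of 0–100 reflect visual comparison with control plants at 14 to 21 days. For preemergence, compound was sprayed on silt loam just after sowing; for postemergence, on plants 2 to 18 cm in height.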

[2] = tested on: oilseed rape (Brassica napus)
Procedure, shortened: as §1

[3] = tested on: blackgrass (Alopecurus myosuroides)
Procedure, shortened: as §1

kochia (Kochia scoparia) = tested on: kochia (Kochia scoparia)
Procedure, shortened: as §1

[4] = tested on: speedwell (bird's-eye speedwell, Veronica persica)
Procedure, shortened: as §1

[5] = tested on: wild buckwheat (Polygonum convolvulus)
Procedure, shortened: as §1

[6] = tested on: downy bromegrass (Bromus tectorum)
Procedure, shortened: as §1

[7] = tested on: winter wheat (Triticum aestivum)
Procedure, shortened: as §1

[8] = tested on: chamomile (scentless chamomile, Matricaria inodora)
Procedure, shortened: as §1

[9] = tested on: lambsquarters (Chenopodium album)
Procedure, shortened: as §1

[10] = tested on: chickweed (common chickweed, Stellaria media)
Procedure, shortened: as §1

[11] = tested on: cutleaf geranium (Geranium dissectum)
Procedure, shortened: as §1

[12] = tested on: field violet (Viola arvensis)
Procedure, shortened: as §1

[13] = tested on: green foxtail (Setaria viridis)
Procedure, shortened: as §1

[14] = tested on: galium (catchweed bedstraw, Galium aparine)
Procedure, shortened: as §1

[15] = tested on: wild radish (Raphanus raphanistrum)
Procedure, shortened: as §1

[16] = tested on: winter barley (Hordeum vulgare)
Procedure, shortened: as §1

[17] = tested on: Italian ryegrass (Lolium multiflorum)
Procedure, shortened: as §1

[18] = tested on: wild mustard (Sinapis arvensis)
Procedure, shortened: as §1

[19] = tested on: field poppy (Papaver rhoeas)
Procedure, shortened: as §1

[20] = tested on: bluegrass (annual bluegrass, Poa annua)
Procedure, shortened: as §1

## FC(F)(F)c1cnc(Oc2c(Br)cccc2Oc2ncc(Cl)cn2)nc1 [Compound 24]
[1]; 16 g ai/ha
  Plant response rating, Wheat, Spring: 10
[1]; 31 g ai/ha
  Plant response rating, Wheat, Spring: 15
[1]; 62 g ai/ha
  Plant response rating, Wheat, Spring: 20
[1]; 125 g ai/ha
  Plant response rating, Wheat, Spring: 20
[2]; 16 g ai/ha
  Plant response rating, Oilseed Rape: 65
[2]; 31 g ai/ha
  Plant response rating, Oilseed Rape: 70
[2]; 62 g ai/ha
  Plant response rating, Oilseed Rape: 75
[2]; 125 g ai/ha
  Plant response rating, Oilseed Rape: 80
[3]; 16 g ai/ha
  Plant response rating, Blackgrass: 25
[3]; 31 g ai/ha
  Plant response rating, Blackgrass: 30
[3]; 62 g ai/ha
  Plant response rating, Blackgrass: 35
[3]; 125 g ai/ha
  Plant response rating, Blackgrass: 45
Kochia (Kochia scoparia); 16 g ai/ha
  Plant response rating, Kochia: 40
Kochia (Kochia scoparia); 31 g ai/ha
  Plant response rating, Kochia: 65
Kochia (Kochia scoparia); 62 g ai/ha
  Plant response rating, Kochia: 80
Kochia (Kochia scoparia); 125 g ai/ha
  Plant response rating, Kochia: 95
[4]; 16 g ai/ha
  Plant response rating, Speedwell: 35
[4]; 31 g ai/ha
  Plant response rating, Speedwell: 60
[4]; 62 g ai/ha
  Plant response rating, Speedwell: 80
[4]; 125 g ai/ha
  Plant response rating, Speedwell: 90
[5]; 16 g ai/ha
  Plant response rating, Buckwheat, Wild: 60
[5]; 31 g ai/ha
  Plant response rating, Buckwheat, Wild: 60
[5]; 62 g ai/ha
  Plant response rating, Buckwheat, Wild: 75
[5]; 125 g ai/ha
  Plant response rating, Buckwheat, Wild: 95
[6]; 16 g ai/ha
  Plant response rating, Bromegrass, Downy: 15
[6]; 31 g ai/ha
  Plant response rating, Bromegrass, Downy: 20
[6]; 62 g ai/ha
  Plant response rating, Bromegrass, Downy: 20
[6]; 125 g ai/ha
  Plant response rating, Bromegrass, Downy: 25
[7]; 16 g ai/ha
  Plant response rating, Wheat, Winter: 10
[7]; 31 g ai/ha
  Plant response rating, Wheat, Winter: 10
[7]; 62 g ai/ha
  Plant response rating, Wheat, Winter: 15
[7]; 125 g ai/ha
  Plant response rating, Wheat, Winter: 15
[8]; 16 g ai/ha
  Plant response rating, Chamomile: 5
[8]; 31 g ai/ha
  Plant response rating, Chamomile: 5
[8]; 62 g ai/ha
  Plant response rating, Chamomile: 10
[8]; 125 g ai/ha
  Plant response rating, Chamomile: 15
[9]; 16 g ai/ha
  Plant response rating, Lambsquarters: 35
[9]; 31 g ai/ha
  Plant response rating, Lambsquarters: 45
[9]; 62 g ai/ha
  Plant response rating, Lambsquarters: 60
[9]; 125 g ai/ha
  Plant response rating, Lambsquarters: 75
[10]; 16 g ai/ha
  Plant response rating, Chickweed: 60
[10]; 31 g ai/ha
  Plant response rating, Chickweed: 70
[10]; 62 g ai/ha
  Plant response rating, Chickweed: 75
[10]; 125 g ai/ha
  Plant response rating, Chickweed: 85
[11]; 16 g ai/ha
  Plant response rating, Geranium, Cutleaf: 20
[11]; 31 g ai/ha
  Plant response rating, Geranium, Cutleaf: 30
[11]; 62 g ai/ha
  Plant response rating, Geranium, Cutleaf: 45
[11]; 125 g ai/ha
  Plant response rating, Geranium, Cutleaf: 65
[12]; 16 g ai/ha
  Plant response rating, Field Violet: 65
[12]; 31 g ai/ha
  Plant response rating, Field Violet: 75
[12]; 62 g ai/ha
  Plant response rating, Field Violet: 85
[12]; 125 g ai/ha
  Plant response rating, Field Violet: 98
[13]; 16 g ai/ha
  Plant response rating, Foxtail, Green: 15
[13]; 31 g ai/ha
  Plant response rating, Foxtail, Green: 15
[13]; 62 g ai/ha
  Plant response rating, Foxtail, Green: 20
[13]; 125 g ai/ha
  Plant response rating, Foxtail, Green: 30
[14]; 16 g ai/ha
  Plant response rating, Galium: 40
[14]; 31 g ai/ha
  Plant response rating, Galium: 70
[14]; 62 g ai/ha
  Plant response rating, Galium: 85
[14]; 125 g ai/ha
  Plant response rating, Galium: 90
[15]; 16 g ai/ha
  Plant response rating, Radish, Wild: 75
[15]; 31 g ai/ha
  Plant response rating, Radish, Wild: 75
[15]; 62 g ai/ha
  Plant response rating, Radish, Wild: 95
[15]; 125 g ai/ha
  Plant response rating, Radish, Wild: 100
[16]; 16 g ai/ha
  Plant response rating, Barley, Winter: 10
[16]; 31 g ai/ha
  Plant response rating, Barley, Winter: 15
[16]; 62 g ai/ha
  Plant response rating, Barley, Winter: 20
[16]; 125 g ai/ha
  Plant response rating, Barley, Winter: 25
[17]; 16 g ai/ha
  Plant response rating, Ryegrass, Italian: 15
[17]; 31 g ai/ha
  Plant response rating, Ryegrass, Italian: 20
[17]; 62 g ai/ha
  Plant response rating, Ryegrass, Italian: 25
[17]; 125 g ai/ha
  Plant response rating, Ryegrass, Italian: 35
[18]; 16 g ai/ha
  Plant response rating, Mustard, Wild: 50
[18]; 31 g ai/ha
  Plant response rating, Mustard, Wild: 80
[18]; 62 g ai/ha
  Plant response rating, Mustard, Wild: 70
[18]; 125 g ai/ha
  Plant response rating, Mustard, Wild: 85
[19]; 16 g ai/ha
  Plant response rating, Field Poppy: 70
[19]; 31 g ai/ha
  Plant response rating, Field Poppy: 80
[19]; 62 g ai/ha
  Plant response rating, Field Poppy: 90
[19]; 125 g ai/ha
  Plant response rating, Field Poppy: 95
[20]; 16 g ai/ha
  Plant response rating, Bluegrass: 15
[20]; 31 g ai/ha
  Plant response rating, Bluegrass: 20
[20]; 62 g ai/ha
  Plant response rating, Bluegrass: 35
[20]; 125 g ai/ha
  Plant response rating, Bluegrass: 40
